Experimental findings from ChEMBL document CHEMBL1201862, “PubChem BioAssay data set” (2004) are described below.

Some test systems named below: HOP-92; Hs-578T; UO-31; EKVX; KM12; 786-0; T47D; NCI-H522; SW-620; BT-549; IGROV-1; SF-539; HT-29; MDA-MB-435; HCT-15; SNB-75; SK-OV-3.
Assay in all cases: NCI tumour cell line growth inhibition, 48 h

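Values below derive from 48-hour exposures of cells grown in 96-well plates, with endpoints linearly interpolated between the two concentrations bracketing the appropriate inhibition level. The concentration for 50% growth inhibition is given as GI50.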 Active and inactive are the calls of the source. Cut-off read from the data, not from the text of the source: active = GI50 up to about 1.1 µM and inactive = higher.

For the molecule `Clc1c2nc3ccccc3c-2[nH]c2ccccc12`, the GI50 was > 100 µM (inactive) in the experiment on HOP-92; 33.7 µM (inactive) in the experiment on Hs-578T; 7.98 µM (inactive) with UO-31; 10.6 µM (inactive) in the experiment on EKVX; 3.94 µM (inactive) with KM12; 32.5 µM (inactive) in the experiment on 786-0. Further, the GI50 is 17.7 µM (inactive) in the experiment on T47D; 20.1 µM (inactive) in the experiment on NCI-H522; 8.83 µM (inactive) in the experiment with SW-620; 64.1 µM (inactive) in the experiment with BT-549; 9.68 µM (inactive) in the experiment with IGROV-1; 13.7 µM (inactive) in the experiment on SF-539. The GI50 was 4.3 µM (inactive) in the experiment with HT-29, 5.11 µM (inactive) in the experiment with MDA-MB-435, 14.4 µM in the experiment on HCT-15 and 39.9 µM (inactive) in the experiment on SNB-75.

As for `O=C1Nc2cccc(Cl)c2/C1=C\c1c(Cl)nc2sccn12`, the GI50 with HOP-92 is 16.8 µM (inactive); with Hs-578T, 21.9 µM (inactive); in the experiment on UO-31, 27.7 µM (inactive); with EKVX, 43.3 µM (inactive); in the experiment with KM12 it was > 100 µM (inactive); in the experiment on 786-0, 9.31 µM (inactive). For the same molecule, the GI50 was 44.6 µM (inactive) with T47D; 50.5 µM (inactive) with NCI-H522; > 100 µM (inactive) in the experiment on SW-620; 28.8 µM (inactive) with BT-549; 28 µM (inactive) in the experiment with IGROV-1; 14.9 µM (inactive) in the experiment on SK-OV-3. Besides, the GI50 was 5.2 µM (inactive) with SF-539; > 100 µM (inactive) in the experiment with HT-29; > 100 µM (inactive) with MDA-MB-435; more than 100 µM with HCT-15; 11.2 µM (inactive) with SNB-75.

With `CCOP(=O)(OCC)c1ccc(=O)[nH]c1-c1cccs1`, the GI50 with HOP-92, in the experiment with Hs-578T, with UO-31, in the experiment on EKVX, in the experiment on KM12 and with 786-0 was > 100 µM (inactive) throughout. Besides, the GI50 with T47D, with NCI-H522, in the experiment on SW-620, with BT-549, in the experiment with IGROV-1 and with SK-OV-3 was > 100 µM (inactive) in each case. Further, the GI50 was > 100 µM (inactive) in the experiment with SF-539; > 100 µM (inactive) in the experiment on HT-29; > 100 µM (inactive) with MDA-MB-435; more than 100 µM with HCT-15; > 100 µM (inactive) with SNB-75.

`NCCCc1ccc2oc3ccccc3c2c1`: the GI50 was 20.4 µM (inactive) in the experiment with HOP-92; 21.3 µM (inactive) with Hs-578T; 15.8 µM (inactive) with UO-31; 13.7 µM (inactive) in the experiment on 786-0; 17.7 µM (inactive) with T47D; 17.1 µM (inactive) with NCI-H522. For the same molecule, the GI50 with SW-620 was 18.9 µM (inactive); in the experiment with BT-549, 19.9 µM (inactive); in the experiment on IGROV-1 it was 20.6 µM (inactive); with SK-OV-3 it was 17.1 µM (inactive); in the experiment on SF-539 it was 21.2 µM (inactive); with HT-29, 12.6 µM (inactive). Also, the GI50 is 15.7 µM (inactive) with MDA-MB-435, 17.6 µM in the experiment on HCT-15 and 16.8 µM (inactive) with SNB-75.

`COc1cc(C2SC(=N)Nc3c2c(C)nn3C(=O)c2ccc(Cl)cc2)ccc1O` (stereo unspecified): the GI50 with HOP-92, in the experiment on Hs-578T, in the experiment on EKVX, with KM12, in the experiment on 786-0 and in the experiment on T47D was > 10 µM (inactive) throughout. In addition, the GI50 in the experiment on NCI-H522, in the experiment on SW-620, in the experiment on BT-549, with IGROV-1, in the experiment on SK-OV-3 and in the experiment with SF-539 was > 10 µM (inactive) in each case. For the same molecule, the GI50 in the experiment on HT-29 is > 10 µM (inactive); in the experiment on MDA-MB-435, > 10 µM (inactive); with HCT-15, more than 10 µM; in the experiment with SNB-75 it was > 10 µM (inactive).

Take `Cc1ccc(C2NC(=N)NC3=C2CCOc2c3ccc3ccccc23)cc1` (stereo unspecified): the GI50 in the experiment with HOP-92 was 5.66 µM (inactive); in the experiment with Hs-578T it was 20.5 µM (inactive); in the experiment with UO-31, 42.9 µM (inactive); in the experiment on EKVX, 7.8 µM (inactive); in the experiment on KM12 it was 4.21 µM (inactive); in the experiment with 786-0, 2.61 µM (inactive). For the same molecule, the GI50 in the experiment on T47D was 25.2 µM (inactive); in the experiment with NCI-H522 it was 33.5 µM (inactive); in the experiment on SW-620, 6.84 µM (inactive); in the experiment on BT-549 it was 6.04 µM (inactive); in the experiment on SK-OV-3 it was 42 µM (inactive); with SF-539 it was 1.57 µM (inactive). The GI50 in the experiment on HT-29 was 1.81 µM (inactive); with MDA-MB-435 it was 2.27 µM (inactive); with HCT-15 it was 4.3 µM; in the experiment with SNB-75, 5.21 µM (inactive).

For the molecule `COc1c(-c2ccc(O)c(O)c2)oc2c(O)c(O)cc(O)c2c1=O`, the GI50 is > 100 µM (inactive) with HOP-92; 49.5 µM (inactive) in the experiment on Hs-578T; > 100 µM (inactive) in the experiment with UO-31; > 100 µM (inactive) in the experiment with EKVX; 66.5 µM (inactive) in the experiment with KM12; 67.5 µM (inactive) in the experiment on 786-0. In addition, the GI50 with T47D is 67 µM (inactive); in the experiment with NCI-H522, 32.1 µM (inactive); in the experiment on SW-620, 22.5 µM (inactive); with BT-549 it was > 100 µM (inactive); in the experiment with IGROV-1, 24.7 µM (inactive); with SK-OV-3, 85.9 µM (inactive). Moreover, the GI50 in the experiment with SF-539 is > 100 µM (inactive); in the experiment with HT-29, 20 µM (inactive); in the experiment on MDA-MB-435, 31 µM (inactive); with HCT-15, 85.5 µM.

Turning to `O=C(O)CCC(NC(=O)c1ccc(Nc2nc3ccccc3nc2C(=O)O)cc1)C(=O)O` (stereo unspecified), the GI50 in the experiment with HOP-92, in the experiment with Hs-578T, in the experiment on UO-31, in the experiment with EKVX, with KM12 and in the experiment on 786-0 was > 100 µM (inactive) each time. The GI50 in the experiment with T47D, with NCI-H522, with BT-549, with IGROV-1, with SK-OV-3 and in the experiment on SF-539 was > 100 µM (inactive) each time. The GI50 in the experiment with HT-29, in the experiment on MDA-MB-435 and with SNB-75 was > 100 µM (inactive) in each case.

As for `CCCCNc1nc(NC2OCC(OC(C)=O)C(OC(C)=O)C2OC(C)=O)c(N=O)c(=O)n1C` (stereo unspecified), the GI50 in the experiment with HOP-92, in the experiment with Hs-578T, with EKVX, in the experiment with KM12, in the experiment with 786-0 and in the experiment with T47D was > 10 µM (inactive) in each case. Moreover, the GI50 in the experiment with NCI-H522, in the experiment on SW-620, in the experiment on BT-549, with IGROV-1, in the experiment with SK-OV-3 and in the experiment on SF-539 was > 10 µM (inactive) in each case. Further, the GI50 is > 10 µM (inactive) with HT-29, > 10 µM (inactive) with MDA-MB-435, more than 10 µM with HCT-15 and > 10 µM (inactive) with SNB-75.

Regarding `N=C(N)SCCON1C(=O)c2ccccc2C1=O`, the GI50 with HOP-92, with Hs-578T, in the experiment with UO-31, in the experiment with EKVX, in the experiment with KM12 and in the experiment on 786-0 was > 100 µM (inactive) each time. For the same molecule, the GI50 with T47D, with NCI-H522, in the experiment with SW-620, in the experiment with BT-549, in the experiment with IGROV-1 and in the experiment on SK-OV-3 was > 100 µM (inactive) each time. For the same molecule, the GI50 in the experiment with SF-539 was > 100 µM (inactive); with HT-29 it was > 100 µM (inactive); in the experiment with MDA-MB-435, > 100 µM (inactive); in the experiment on HCT-15, more than 100 µM; with SNB-75 it was > 100 µM (inactive).

With `Cc1ccc2nc(Cl)c(/C=N/N3C(=O)/C(=C/Cc4ccco4)N=C3c3ccccc3)cc2c1`, the GI50 in the experiment with HOP-92 is 28.9 µM (inactive); with Hs-578T, 34.2 µM (inactive); with UO-31, 23.7 µM (inactive); with EKVX it was 30.5 µM (inactive); with KM12, 3.33 µM (inactive); in the experiment on 786-0 it was 20.4 µM (inactive). The GI50 in the experiment with T47D is > 50 µM (inactive); in the experiment on NCI-H522, 27.4 µM (inactive); with SW-620, 58.1 µM (inactive); with BT-549, 29.7 µM (inactive); in the experiment on IGROV-1, 23.1 µM (inactive); with SK-OV-3, > 100 µM (inactive). Further, the GI50 with SF-539 is 43.6 µM (inactive); with HT-29, 32.7 µM (inactive); with MDA-MB-435, 2.1 µM (inactive); in the experiment with HCT-15, 27.7 µM; with SNB-75 it was > 47.4 µM (inactive).

Turning to `O=[N+]([O-])c1ccc2nc3ccccc3cc2c1`, the GI50 with HOP-92 is 3.28 µM (inactive); in the experiment with Hs-578T, 3.21 µM (inactive); in the experiment with UO-31, 3.4 µM (inactive); in the experiment on EKVX it was 5.31 µM (inactive); in the experiment with 786-0, 2.38 µM (inactive); with T47D, 3.63 µM (inactive). The GI50 was 2.81 µM (inactive) in the experiment on NCI-H522; 1.85 µM (inactive) in the experiment on SW-620; 4.05 µM (inactive) with BT-549; 1.91 µM (inactive) in the experiment with IGROV-1; 4.21 µM (inactive) in the experiment with SK-OV-3; 2.1 µM (inactive) in the experiment with SF-539. Besides, the GI50 in the experiment with HT-29 is 2 µM (inactive); with MDA-MB-435, 1.46 µM (inactive); in the experiment on HCT-15, 1.37 µM; with SNB-75, 3.7 µM (inactive).

As to `C[C@@]12C[C@@H](c3ccccc3O1)N1CCSC1=N2`, the GI50 in the experiment with HOP-92, with Hs-578T, in the experiment on UO-31, with EKVX, in the experiment on KM12 and with 786-0 was > 100 µM (inactive) in each case. The GI50 in the experiment on T47D, in the experiment with NCI-H522, with SW-620, in the experiment with BT-549, with IGROV-1 and in the experiment on SK-OV-3 was > 100 µM (inactive) in each case. Also, the GI50 in the experiment on SF-539 was > 100 µM (inactive); in the experiment on HT-29, > 100 µM (inactive); with MDA-MB-435, > 100 µM (inactive); in the experiment with HCT-15, more than 100 µM; in the experiment with SNB-75, > 100 µM (inactive).
